Columns and labels:
HEK293/sortilin cells = assay: Lysosomal sorting and degradation of NA650 (microscopy, blotted lysates, leupeptin); format: cell-based; details: 24 h incubation, NA650 100 nM, compound 300 nM
Procedure: Cellular uptake of target NA650 was analyzed with fluorescence microscopy. For this assay, coverslips in 4 well plates were coated with poly-L lysine prior to seeding of HEK293/sortilin cells (25K cells/coverslip) in culture media (as described in Example 3)) and incubated overnight in cell incubator (37° C., humidified, 5% CO2). The culture media was replaced with assay media (as described in Example 3) containing NA650 (Invitrogen) (500 nM) (Thermo Fischer), a compound according to SEQ ID NO.: 147 (2 μM) and AF38469 (100 μM, MedChemExpress). The cells were incubated in a cell incubator for 4 hours before washing in dPBS (Bionordika) followed by fixation with dPBS+4% PFA (Sigma Aldrich) for 15 minutes. […] The fluorescent signal was analyzed using a laser scanning confocal microscope (LSM-800). […]
Culture medium was replaced with assay medium (DMEM (Lonza), 10% fetal bovine serum (Sigma Aldrich), 1% penicillin-streptomycin (Sigma Aldrich), 1% GlutaMAX (Gibco)) with or without NA650 (Invitrogen) (100 nM) (Thermo Fischer), peptidic bifunctional compound (300 nM) and leupeptin (80 μM) (Sigma Aldrich). […] Proteins were blotted onto a nitrocellulose membrane (Thermo Fisher), and the DyLight650 signal was detected using an iBright 1500 (Thermo Fisher). […]

[1] = system: HEK293 cells expressing full length sortilin receptor; assay: Cellular uptake of NA650 in HEK293/sortilin cells; format: cell-based; details: Table 6; NA650 (100 nM), 3 h, biotin warhead compounds
Procedure: Cellular uptake of NA650 was investigated in HEK293 cells expressing full length sortilin receptor (Petersen et. al.). Cells were seeded in poly-L-lysine coated 96-well plates (Perkin Elmer) (40K/well) in 50 μL culture medium (DMEM (Lonza)+10% FBS (SigmaAldrich)+1% penicillin-streptomycin (SigmaAldrich)+1% GlutaMAX (Gibco)+100 μg/mL Zeocin (Invitrogen)) and incubated overnight in cell incubator (37° C., humidified, 5% CO2).
Culture medium was replaced with assay medium (DMEM (Lonza)+10% fetal bovine serum (SigmaAldrich)+1% penicillin-streptomycin (SigmaAldrich)+1% GlutaMAX (Gibco)) containing NA650 (Invitrogen) (100 nM) (Thermo Fischer) and peptidic bifunctional compounds (9.8 nM to 10 μM). Cells were incubated for 3 h in cell incubator before they were washed in dPBS (Bionordika). The DyLight650 signal in the cell layer was detected using a fluorescence plate reader (BMG Labtech Clariostar).
Cellular uptake of NA650 was investigated in HEK293 cells expressing full length sortilin receptor using a methodology analogous to example 3.

[2] = biological target: T1, soluble ectodomain of sortilin-6his (Homo sapiens, UniProt Q99523, V650M); assay: MST binding to soluble ectodomain of sortilin-6his; details: Table 4; small molecule bifunctional compounds; MST; read-out: KD score, binding to sortilin (Kd)
T1 construct: the soluble ectodomain of sortilin-6his is measured by microscale thermophoresis (MST)

[3] = biological target: T2, Streptavidin-d2 and Sortilin-6His (UniProt P22629+Q99523, V650M); assay: TR-FRET ternary complex formation streptavidin / small molecule bifunctional compound / sortilin; format: binding; details: Table 5; 5 μM-0.6 pM, […] incubation
T2 construct: ternary complex formation composed of streptavidin, bifunctional compound and sortilin-6his

TNFa-6His = TNFa-6His (Homo sapiens, UniProt P01375); assay: MST binding to TNFa-6his; details: Table 8, NTA labeled TNFa-6His (100 nM), read-out: KD (score), Kd of TNFalpha binding
Text: MST was measure analogously to example 1 using TNFa-6his.

Chain of TNFa-6His (P01375 77-233 limits assumed): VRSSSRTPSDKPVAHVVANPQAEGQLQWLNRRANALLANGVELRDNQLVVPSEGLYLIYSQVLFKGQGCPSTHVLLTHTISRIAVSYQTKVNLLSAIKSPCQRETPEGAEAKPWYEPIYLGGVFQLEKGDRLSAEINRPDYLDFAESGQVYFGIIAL
T1 sequence (Q99523 with tags, fused parts or gaps V650M): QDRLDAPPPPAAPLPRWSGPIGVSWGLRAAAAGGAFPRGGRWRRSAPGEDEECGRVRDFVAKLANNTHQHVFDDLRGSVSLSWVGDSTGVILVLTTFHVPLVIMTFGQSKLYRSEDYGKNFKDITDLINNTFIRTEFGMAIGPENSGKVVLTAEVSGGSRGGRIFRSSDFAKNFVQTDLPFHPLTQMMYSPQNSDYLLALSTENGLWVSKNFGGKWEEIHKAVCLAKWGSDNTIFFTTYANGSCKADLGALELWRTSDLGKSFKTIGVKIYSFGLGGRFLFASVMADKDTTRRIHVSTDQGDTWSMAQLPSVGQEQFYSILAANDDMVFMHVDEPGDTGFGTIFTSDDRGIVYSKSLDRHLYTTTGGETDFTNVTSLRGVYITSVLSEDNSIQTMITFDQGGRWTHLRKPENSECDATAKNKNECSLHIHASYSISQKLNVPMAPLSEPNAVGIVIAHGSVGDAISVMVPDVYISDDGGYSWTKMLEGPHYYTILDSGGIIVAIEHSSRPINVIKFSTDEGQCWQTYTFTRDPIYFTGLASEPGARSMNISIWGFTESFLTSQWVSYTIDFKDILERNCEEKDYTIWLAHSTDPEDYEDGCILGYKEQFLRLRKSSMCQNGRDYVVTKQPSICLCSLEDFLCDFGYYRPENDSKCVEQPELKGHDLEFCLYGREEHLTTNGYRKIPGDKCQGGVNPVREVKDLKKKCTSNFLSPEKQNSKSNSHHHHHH

Compound | Kd [2] | Kd (TNFa-6His) | NA650 band in lysate (HEK293/sortilin cells) | AUC score, target internalization [1] | AUC score, ternary complex formation [3]
CC(C)(C)CCC(NC(=O)c1ccc(Oc2cccc(OCCOCCOCCOCCOCCOCCNC(=O)CCCC[C@@H]3SC[C@@H]4NC(=O)N[C@@H]43)c2)nc1)C(=O)O (some centres unmarked) [B025] |  |  | visible in cells incubated with B025 alone |  | 
CC(C)(C)CC[C@H](NC(=O)c1ccc(Oc2cccc3c(C(=O)NCCCNC(=O)CCOCCOCCOCCOCCNC(=O)CCCC[C@@H]4SC[C@@H]5NC(=O)N[C@@H]54)cccc23)nc1)C(=O)O [BF020, (2S)-2-[[6-[[5-[3-[3-[2-[2-[2-[2-[5-[(3aS,4S,6aR)-2-oxo-1,3,3a,4,6,6a-hexahydrothieno[3,4-d]imidazol-4-yl]pentanoylamino]ethoxy]ethoxy]ethoxy]ethoxy]propanoylamino]propylcarbamoyl]-1-naphthyl]oxy]pyridine-3-carbonyl]amino]-5,5-dimethyl-hexanoic acid] | 0.01 to 0.25 µM |  |  | ++ (AUC > 100) | ++ (AUC > 25.000)
CC(C)(C)CC[C@H](NC(=O)c1ccc(Oc2cccc(C(=O)NCCOCCOCCOCCOCCOCCOCCNC(=O)CCCC[C@@H]3SC[C@@H]4NC(=O)N[C@@H]43)c2)nc1)C(=O)O [BF023, (2S)-2-[[6-[3-[2-[2-[2-[2-[2-[2-[2-[5-[(3aS,4S,6aR)-2-oxo-1,3,3a,4,6,6a-hexahydrothieno[3,4-d]imidazol-4-yl]pentanoylamino]ethoxy]ethoxy]ethoxy]ethoxy]ethoxy]ethoxy]ethylcarbamoyl]phenoxy]pyridine-3-carbonyl]amino]-5,5-dimethyl-hexanoic acid] | 0.01 to 0.25 µM |  |  | + (AUC < 100) | + (AUC < 25.000)
CC(C)(C)CC[C@H](NC(=O)c1ccc(Oc2cccc(OCCOCCOCCOCCOCCOCCOCCOCCOCCNC(=O)CCCC[C@@H]3SC[C@@H]4NC(=O)N[C@@H]43)c2)nc1)C(=O)O [BF026, (2S)-2-[[6-[3-[2-[2-[2-[2-[2-[2-[2-[2-[2-[5-[(3aS,4S,6aR)-2-oxo-1,3,3a,4,6,6a-hexahydrothieno[3,4-d]imidazol-4-yl]pentanoylamino]ethoxy]ethoxy]ethoxy]ethoxy]ethoxy]ethoxy]ethoxy]ethoxy]ethoxy]phenoxy]pyridine-3-carbonyl]amino]-5,5-dimethyl-hexanoic acid] | 0.01 to 0.25 µM |  |  | ++ (AUC > 100) | ++ (AUC > 25.000)
Cc1nc2cc(F)c(-c3cnc(OCCOCCOCCOCCOCCOCCOCCNC(=O)c4ccc(Oc5cccc(OCC(=O)N[C@@H](CCC(C)(C)C)C(=O)O)c5)nc4)nc3)nc2c(N[C@H](C)c2cc(C#N)ccc2F)c1Cl [BF079] |  | < 2 µM |  |  | 
Cc1cc(-c2ccc(OCC(=O)NCCOCCOCc3cn(CCCCCOc4ncc(-c5nc6c(N[C@@H](C)c7cc(C#N)ccc7F)c(Cl)c(C)nc6cc5F)cn4)nn3)cc2)cc(NC(=O)c2ccc(C(F)(F)F)cc2C(=O)O)n1 [BF080] | < 0.001 µM | < 2 µM |  |  | 

More lines, main results first:

Kd [2] | Kd (TNFa-6His) | Compound | NA650 band in lysate (HEK293/sortilin cells) | AUC score, target internalization [1] | AUC score, ternary complex formation [3]
0.01 to 0.25 µM | < 2 µM | Cc1nc2cc(F)c(-c3cnc(OCCCCCn4cc(COCCOCCOCCOCCNC(=O)c5ccc(Oc6cccc(OCC(=O)N[C@@H](CCC(C)(C)C)C(=O)O)c6)nc5)nn4)nc3)nc2c(N[C@H](C)c2cc(C#N)ccc2F)c1Cl [BF076] |  |  | 
0.001 to 0.01 µM | < 2 µM | C[C@@H]1CN(c2ncc(-c3ccc4c(n3)N(Cc3cccnc3C#N)C(C)(C)C4=O)cn2)CCN1C(=O)CNC(=O)CCCCCCCCCCn1cc(-c2cccc(Oc3ccc(C(=O)N[C@@H](CCC(C)(C)C)C(=O)O)cn3)c2)nn1 [BF081, (2S)-2-[[6-[3-[1-[11-[[2-[(2R)-4-[5-[1-[(2-cyano-3-pyridyl)methyl]-2,2-dimethyl-3-oxo-pyrrolo[2,3-b]pyridin-6-yl]pyrimidin-2-yl]-2-methyl-piperazin-1-yl]-2-oxo-ethyl]amino]-11-oxo-undecyl]triazol-4-yl]phenoxy]pyridine-3-carbonyl]amino]-5,5-dimethyl-hexanoic acid] |  |  | 
0.001 to 0.01 µM | > 2 µM | C[C@@H]1CN(c2ncc(-c3ccc4c(n3)N(Cc3cccnc3C#N)C(C)(C)C4=O)cn2)CCN1C(=O)CNC(=O)COCCOCCOCCOCCOc1cccc(Oc2ccc(C(=O)N[C@@H](CCC(C)(C)C)C(=O)O)cn2)c1 [BF082] |  |  | 
 | < 2 µM | C[C@@H]1CN(c2ncc(-c3ccc4c(n3)N(Cc3cccnc3C#N)C(C)(C)C4=O)cn2)CCN1C(=O)CNC(=O)CCCCCOCCOCCNC(=O)c1cccc(Oc2ccc(C(=O)N[C@@H](CCC(C)(C)C)C(=O)O)cn2)c1 [BF0100] |  |  | 
